Test results published in US12331041B2, “GLP-1 receptor agonists and uses thereof” (Pfizer Inc., priority 2018, dated 2025).
pEC50: −log10 of the molar value. Structures can show the parent of a compound that is named as a salt.

Legend:
human GLP-1R [1] = target: T1, human GLP-1R (Homo sapiens, UniProt P43220, G168S); assay: CHO GLP-1R Clone H6 - Assay 1 (HTRF cAMP agonist assay); type: cell-based; conditions: for pEC50: CHO Clone H6, high GLP-1R density, cAMP, geometric mean; for Emax: CHO Clone H6, relative to saturating full agonist GLP-1 7-36 (1 μM), arithmetic mean
T1 construct: expressed in transfected cells
T1 sequence (P43220 24-463 G168S): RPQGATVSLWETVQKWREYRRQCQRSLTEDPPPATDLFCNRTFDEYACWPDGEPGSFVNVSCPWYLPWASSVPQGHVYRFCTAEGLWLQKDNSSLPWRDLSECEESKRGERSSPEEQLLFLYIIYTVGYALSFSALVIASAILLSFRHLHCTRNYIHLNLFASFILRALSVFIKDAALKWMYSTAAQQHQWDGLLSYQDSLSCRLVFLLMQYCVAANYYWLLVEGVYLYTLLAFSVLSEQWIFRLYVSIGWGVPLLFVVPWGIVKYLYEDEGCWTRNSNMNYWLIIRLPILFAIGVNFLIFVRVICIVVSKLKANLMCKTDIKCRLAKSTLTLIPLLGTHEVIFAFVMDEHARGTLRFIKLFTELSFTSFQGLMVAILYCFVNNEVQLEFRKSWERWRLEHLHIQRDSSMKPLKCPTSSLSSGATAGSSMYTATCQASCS
Description: GLP-1R-mediated agonist activity was determined with a cell-based functional assay utilizing an HTRF (Homogeneous Time-Resolved Fluorescence) cAMP detection kit (cAMP HI Range Assay Kit; CisBio cat #62AM6PEJ) that measures cAMP levels in the cell. The method is a competitive immunoassay between native cAMP produced by the cells and exogenous cAMP labeled with the dye d2, The tracer binding is visualized by a mAb anti-cAMP labeled with Cryptate. The specific signal (i.e. energy transfer) is inversely proportional to the concentration of cAMP in either standard or experimental sample.
The human GLP-1R coding sequence (NCBI Reference Sequence NP_002053.3, including naturally-occurring variant Gly168Ser) was subcloned into pcDNA3 (Invitrogen) and a cell line stably expressing the receptor was isolated (designated Clone H6).
(§1) A 1 mL sample of the cell suspension in growth media was counted on a Becton Dickinson ViCell to determine cell viability and cell count per mL. The remaining cell suspension was then adjusted with growth media to deliver 2000 viable cells per well using a Matrix Combi Multidrop reagent dispenser, and the cells were dispensed into a white 384 well tissue culture treated assay plate (Corning 3570). The assay plate was then incubated for 48 hours at 37° C. in a humidified environment in 5% carbon dioxide.
Varying concentrations of each compound to be tested (in DMSO) were diluted in assay buffer (HBSS with Calcium/Magnesium (Lonza/BioWhittaker cat #10-527F)/0.1% BSA (Sigma Aldrich cat #A7409-1L)/20 mM HEPES (Lonza/BioWhittaker cat #17-737E) containing 100 μM 3-isobutyl-1-methylxanthin (IBMX; Sigma cat #15879). The final DMSO concentration is 1%.
After 48 hours, the growth media was removed from the assay plate wells, and the cells were treated with 20 μL of the serially diluted compound in assay buffer for 30 minutes at 37° C. in a humidified environment in 5% carbon dioxide. Following the 30 minute incubation, 10 μL of labeled d2 cAMP and 10 μL of anti-cAMP antibody (both diluted 1:20 in cell lysis buffer; as described in the manufacturer's assay protocol) were added to each well of the assay plate. The plates were then incubated at room temperature and after 60 minutes, changes in the HTRF signal were read with an Envision 2104 multi-label plate reader using excitation of 330 nm and emissions of 615 and 665 nm. Raw data were converted to nM cAMP by interpolation from a cAMP standard curve (as described in the manufacturer's assay protocol) and the percent effect was determined relative to a saturating concentration of the full agonist GLP-17-36 (1 μM) included on each plate. EC50 determinations were made from agonist dose-response curves analyzed with a curve fitting program using a 4-parameter logistic dose response equation.

human GLP-1R [2] = target: T2, human GLP-1R (Homo sapiens, UniProt P43220, L260F); assay: CHO GLP-1R Clone C6 - Assay 2 (HTRF cAMP agonist assay); type: cell-based; conditions: for pEC50: CHO clone C6, low GLP-1R density, cAMP, geometric mean; for Emax: CHO clone C6, relative to saturating full agonist GLP-1 (1 μM), arithmetic mean
T2 construct: expressed in transfected cells; host or cells: CHO Flp-In T-REx, clonal line C6 (pcDNA5-FRT-TO)
T2 sequence (P43220 24-463 L260F): as the sequence (P43220 24-463 G168S) above, with S145G, L237F counted along it
Description: GLP-1R-mediated agonist activity was determined with a cell-based functional assay utilizing an HTRF (Homogeneous Time-Resolved Fluorescence) cAMP detection kit (cAMP HI Range Assay Kit; Cis Bio cat #62AM6PEJ) that measures cAMP levels in the cell. The method is a competitive immunoassay between native cAMP produced by the cells and exogenous cAMP labeled with the dye d2. The tracer binding is visualized by a mAb anti-cAMP labeled with Cryptate. The specific signal (i.e. energy transfer) is inversely proportional to the concentration of cAMP in either a standard or an experimental sample.
The human GLP-1R coding sequence (NCBI Reference Sequence NP_002053.3, including naturally-occurring variant Leu260Phe) was subcloned into pcDNA5-FRT-TO and a clonal CHO cell line stably expressing a low receptor density was isolated using the Flp-In™ T-Rex™ System, as described by the manufacturer (ThermoFisher).
as §1, with “deliver 1600” for “deliver 2000”, “48 h” for “48 hours”, “environment (95% O2,” for “environment in”, “5% CO2)” for “5% carbon dioxide.”
Varying concentrations of each compound to be tested (in DMSO) were diluted in assay buffer [HBSS with Calcium/Magnesium (Lonza/BioWhittaker cat #10-527F)/0.1% BSA (Sigma Aldrich cat #A7409-1L)/20 mM HEPES (Lonza/BioWhittaker cat #17-737E)] containing 100 μM 3-isobutyl-1-methylxanthin (IBMX; Sigma cat #15879). The final DMSO concentration in the compound/assay buffer mixture is 1%.
After 48 h, the growth media was removed from the assay plate wells, and the cells were treated with 20 μL of the serially diluted compound in assay buffer for 30 min at 37° C. in a humidified environment (95% O2, 5% CO2). Following the 30 min incubation, 10 μL of labeled d2 cAMP and 10 μL of anti-cAMP antibody (both diluted 1:20 in cell lysis buffer; as described in the manufacturer's assay protocol) were added to each well of the assay plate. The plates were then incubated at room temperature and after 60 minutes, changes in the HTRF signal were read with an Envision 2104 multi-label plate reader using excitation of 330 nm and emissions of 615 and 665 nm. Raw data were converted to nM cAMP by interpolation from a cAMP standard curve (as described in the manufacturer's assay protocol) and the percent effect was determined relative to a saturating concentration of the full agonist GLP-1 (1 μM) included on each plate. EC50 determinations were made from agonist dose response curves analyzed with a curve fitting program using a 4-parameter logistic dose response equation.

## O=C(O)c1ccc2nc(CN3CCC(c4cccnc4OCc4ccc(Cl)cc4F)CC3)n(Cc3ncco3)c2c1 [Example 2, 2-[(4-{2-[(4-chloro-2-fluorobenzyl)oxy]pyridin-3-yl}piperidin-1-yl)methyl]-1-(1,3-oxazol-2-ylmethyl)-1H-benzimidazole-6-carboxylic acid, trifluoroacetate salt]
Human GLP-1R [1]
  pEC50: 8.49
  Emax: 79%
Human GLP-1R [2]
  pEC50: 7.42
  Emax: 81%

## CCn1cncc1Cn1c(CN2CCC(c3cccnc3OCc3ccc(Cl)cc3F)CC2)nc2ccc(C(=O)O)cc21 [Example 3, 2-[(4-{2-[(4-chloro-2-fluorobenzyl)oxy]pyridin-3-yl}piperidin-1-yl)methyl]-1-[(1-ethyl-1H-imidazol-5-yl)methyl]-1H-benzimidazole-6-carboxylic acid, trifluoroacetate salt]
Human GLP-1R [1]
  pEC50: 9.24
  Emax: 79%
Human GLP-1R [2]
  pEC50: 8.05
  Emax: 88%

## N#Cc1ccc(COc2ncccc2C2CCN(Cc3nc4ccc(C(=O)O)cc4n3Cc3ncco3)CC2)c(F)c1 [Example 4, 2-[(4-{2-[(4-cyano-2-fluorobenzyl)oxy]pyridin-3-yl}piperidin-1-yl)methyl]-1-(1,3-oxazol-2-ylmethyl)-1H-benzimidazole-6-carboxylic acid, trifluoroacetate salt]
Human GLP-1R [1]
  pEC50: 8.52
  Emax: 77%
Human GLP-1R [2]
  pEC50: 7.40
  Emax: 98%

## O=C(O)c1ccc2nc(CN3CCC(c4cccnc4OCc4ccc(Cl)cc4F)CC3)n(Cc3cnco3)c2c1 [Example 6, 2-[(4-{2-[(4-chloro-2-fluorobenzyl)oxy]pyridin-3-yl}piperidin-1-yl)methyl]-1-(1,3-oxazol-5-ylmethyl)-1H-benzimidazole-6-carboxylic acid, trifluoroacetate salt]
Human GLP-1R [1]
  pEC50: 8.35
  Emax: 68%
Human GLP-1R [2]
  pEC50: 7.08
  Emax: 83%

## O=C(O)c1ccc2nc(CN3CCC(c4cccnc4OCc4ccc(Cl)cc4F)CC3)n(Cc3ncco3)c2n1 [Example 7, 2-[(4-{2-[(4-chloro-2-fluorobenzyl)oxy]pyridin-3-yl}piperidin-1-yl)methyl]-3-(1,3-oxazol-2-ylmethyl)-3H-imidazo[4,5-b]pyridine-5-carboxylic acid, trifluoroacetate salt]
Human GLP-1R [1]
  pEC50: 8.05
  Emax: 81%
Human GLP-1R [2]
  pEC50: 6.72
  Emax: 81%

## O=C(O)c1ccc2nc(CN3CCC(c4cccnc4OCc4ccc(Cl)cc4F)CC3)n(C[C@H]3CCOC3)c2c1 [Example 8, 2-[(4-{2-[(4-chloro-2-fluorobenzyl)oxy]pyridin-3-yl}piperidin-1-yl)methyl]-1-[(3R)-tetrahydrofuran-3-ylmethyl]-1H-benzimidazole-6-carboxylic acid, trifluoroacetate salt]
Human GLP-1R [1]
  pEC50: 8.22
  Emax: 72%
Human GLP-1R [2]
  pEC50: 6.64
  Emax: 76%

## COCCn1c(CN2CCC(c3cccnc3OCc3ccc(C#N)cc3F)CC2)nc2ccc(C(=O)O)cc21 [Example 9, 2-[(4-{2-[(4-cyano-2-fluorobenzyl)oxy]pyridin-3-yl}piperidin-1-yl)methyl]-1-(2-methoxyethyl)-1H-benzimidazole-6-carboxylic acid, trifluoroacetate salt]
Human GLP-1R [1]
  pEC50: 7.55
  Emax: 77%
Human GLP-1R [2]
  pEC50: 6.15
  Emax: 81%

## Cn1cncc1Cn1c(CN2CCC(c3cccnc3OCc3ccc(Cl)cc3F)CC2)nc2ccc(C(=O)O)cc21 [Example 11, 2-[(4-{2-[(4-chloro-2-fluorobenzyl)oxy]pyridin-3-yl}piperidin-1-yl)methyl]-1-[(1-methyl-1H-imidazol-5-yl)methyl]-1H-benzimidazole-6-carboxylic acid, trifluoroacetate salt]
Human GLP-1R [1]
  pEC50: 8.72
  Emax: 83%
Human GLP-1R [2]
  pEC50: 7.31
  Emax: 100%

## O=C(O)c1ccc2nc(CN3CCC(c4cccnc4OCc4ccc(F)cc4F)CC3)n(C[C@@H]3CCO3)c2c1 [Example 12, ammonium 2-[(4-{2-[(2,4-difluorobenzyl)oxy]pyridin-3-yl}piperidin-1-yl)methyl]-1-[(2S)-oxetan-2-ylmethyl]-1H-benzimidazole-6-carboxylate]
Human GLP-1R [1]
  pEC50: 8.33
  Emax: 78%
Human GLP-1R [2]
  pEC50: 6.96
  Emax: 93%

## N#Cc1ccc(COc2ncccc2C2CCN(Cc3nc4ccc(C(=O)O)cc4n3C[C@@H]3CCCO3)CC2)c(F)c1 [Example 13, 2-[(4-{2-[(4-cyano-2-fluorobenzyl)oxy]pyridin-3-yl}piperidin-1-yl)methyl]-1-[(2S)-tetrahydrofuran-2-ylmethyl]-1H-benzimidazole-6-carboxylic acid, trifluoroacetate salt]
Human GLP-1R [1]
  pEC50: 8.22
  Emax: 80%
Human GLP-1R [2]
  pEC50: 6.57
  Emax: 91%

## O=C(O)c1ccc2nc(CN3CCC(c4cccnc4OCc4ccc(Cl)cc4F)CC3)n(CCN3CCOC3=O)c2c1 [Example 14, 2-[(4-{2-[(4-chloro-2-fluorobenzyl)oxy]pyridin-3-yl}piperidin-1-yl)methyl]-1-[2-(2-oxo-1,3-oxazolidin-3-yl)ethyl]-1H-benzimidazole-6-carboxylic acid, trifluoroacetate salt]
Human GLP-1R [1]
  pEC50: 7.85
  Emax: 77%
Human GLP-1R [2]
  pEC50: 6.27
  Emax: 120%

## CCn1cncc1Cn1c(CN2CCC(c3cccnc3OCc3ccc(Cl)cc3F)CC2)nc2ccc(C(=O)O)nc21 [Example 15, 2-[(4-{2-[(4-chloro-2-fluorobenzyl)oxy]pyridin-3-yl}piperidin-1-yl)methyl]-3-[(1-ethyl-1H-imidazol-5-yl)methyl]-3H-imidazo[4,5-b]pyridine-5-carboxylic acid, trifluoroacetate salt]
Human GLP-1R [1]
  pEC50: 9.02
  Emax: 81%
Human GLP-1R [2]
  pEC50: 7.68
  Emax: 91%

## CCn1cncc1Cn1c(CN2CCC(c3cccnc3OCc3ccc(C#N)cc3F)CC2)nc2ccc(C(=O)O)cc21 [Example 16, 2-[(4-{2-[(4-cyano-2-fluorobenzyl)oxy]pyridin-3-yl}piperidin-1-yl)methyl]-1-[(1-ethyl-1H-imidazol-5-yl)methyl]-1H-benzimidazole-6-carboxylic acid, trifluoroacetate salt]
Human GLP-1R [1]
  pEC50: 9.00
  Emax: 87%
Human GLP-1R [2]
  pEC50: 7.74
  Emax: 130%
